Reference: US20260132128A1, “COMPOUND FOR RECOVERING P53 MUTATION FUNCTION AND USE THEREOF” (SHENZHEN ZHONGGE BIOLOGICAL TECHNOLOGY CO., LTD., priority 2022, published 2026)
Marks after values point to notes of the source that are not given here.

What was measured:
[1] = Liver microsome stability test, mouse (MLM); assay type: in vitro ADME; conditions: mouse liver microsomes, NADPH; read-out: T1/2 (min) Mouse
Protocol: The 10 mM test compound/ketanserin (Energy Chemical, Cat. No. E020711) stock solution was diluted with acetonitrile to 0.5 mM compound/reference compound. The frozen 100 mM NADPH (MCE, Cat. No. HYF003/CS-4998) was diluted with phosphate buffer solution to a concentration of 6 mM; 20 mg/mL HLM (BioIVT, Cat. No. X008067) or MLM (BioIVT, Cat. No. M00501) was diluted with phosphate buffer solution to a concentration of 0.75 mg/ml, and added to a 96-round well plate, respectively, and shaken evenly on an oscillator at 600 rpm. The above oscillated samples were pipetted 3 times with an electric pipettor and dispensed into a new 96-well plate (containing NADPH group (n=2), NADPH-free group was added at 0 and 45 min (n=1)), and there were a total of 5 groups of 0, 5, 15, 30 and 45 min, respectively. After pre-incubation of the 5 groups of samples at 37° C. for 5 min, glacial acetonitrile was quickly added to the 0 min group for precipitation, and after rapid vortexing, K-Buffer or NADPH was added with an electric pipettor. The remaining groups were sequentially added with 6 mM NADPH to start the reaction in the order of 45, 30, 15 and 5 min samples, and K-Buffer solution was added to the NADPH-free group. After mixing at 1000 rpm in an oscillating mixer for 10 s, they were continuously incubated at 37° C. for the corresponding time. The reaction was terminated by quickly adding glacial acetonitrile internal standard using an electric pipettor; after vortexing at 900 rpm for 10 seconds, heat sealing was performed, oscillation was performed on an oscillator for 10 minutes, centrifugation was performed at 4000 rpm for 50 minutes, the supernatant was collected and diluted with pure water, and the test compound and the reference compound were quantified by LC-MS/MS analysis.

p53 Y220C [2] = target: T1, p53 Y220C (Homo sapiens, UniProt P04637, Y220C); assay: DNA binding test (HTRF): binding of P53Y220C protein to DNA; assay type: biochemical; conditions: multiple ratio of EC50 of the compound to the reference compound, DNA binding test
T1 construct: a truncated mutant containing only amino acids 94-312 of p53; made in house; host or cells: E. coli

p53 Y220C [3] = target: T2, p53 Y220C (Homo sapiens, UniProt P04637, P309S/R273H/Y220C); assay: as above; assay type: biochemical; conditions: HTRF, activation of p53 Y220C (aa 94-312) binding to biotin DNA
T2 construct: a truncated mutant containing only amino acids 94-312 of p53; made in house; host or cells: E. coli

NUGC-3 cells = assay: NUGC-3 cell proliferation assay (CTG); assay type: cell-based, human; conditions: for GI50: 6 days, CTG; for Compound GI50 (nM)/Reference compound GI50 (nM): multiple ratio of GI50 of the compound to the reference compound
Procedure, shortened: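 NUGC-3 cells (250/well), plated overnight, were exposed 6 days at 37° C to compound, 10 doses of 1:3 dilutions from 10 μM top final. Viability by CellTiter-Glo luminescence; inhibition relative to 0.1% DMSO and blank, GI50 from variable-slope nonlinear fit.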

Row | SMILES | half-life [1] | EC50 (p53 Y220C [3]) | Compound EC50 (nM)/Reference compound EC50 (nM) (p53 Y220C [2]) | GI50 (NUGC-3 cells) | Compound GI50 (nM)/Reference compound GI50 (nM) (NUGC-3 cells) | GI50 (NUGC-3 cells; Homo sapiens, NUGC-3, 144 h)
1 | CNC(=O)c1ccc(NCC#Cc2nc3c(NC4CCC(N5CC6(COC6)C5)CC4F)cccn3c2CC(F)(F)F)c(OC)c1 (single isomer, unassigned) [Compound 35-6i] | 19.2 min | < 100 nM | B (B: EC50 of the reference compound<EC50 of the compound≤3.0*EC50 of the reference compound) | < 1000 nM | A (A: GI50 of the compound ≤ GI50 of the reference compound) | –
2 | CNC(=O)c1ccc(NCC#Cc2nc3c(N[C@@H]4CCN(C)C[C@@H]4F)cccn3c2CC(F)(F)F)c(OC)c1 [Compound 5] | – | < 100 nM | B (B: EC50 of the reference compound<EC50 of the compound≤3.0*EC50 of the reference compound) | – | B (B: GI50 of the reference compound < GI50 of the compound ≤ 3.0 * GI50 of the reference compound) | 1000 to 5000 nM
3 | COc1cc(C(=O)NC2CC2)ccc1NCC#Cc1nc2c(NC3CC[C@@H](N4CC5(COC5)C4)C[C@@H]3F)cccn2c1CC(F)(F)F (stereo partly shown) [Compound 54] | 78.4 min | < 100 nM | B (B: EC50 of the reference compound<EC50 of the compound≤3.0*EC50 of the reference compound) | – | C (C: GI50 of the compound ≥ 3 * GI50 of the reference compound) | < 1000 nM

Now from value to compound, other results behind:

Row | half-life [1] | EC50 (p53 Y220C [3]) | SMILES | Compound EC50 (nM)/Reference compound EC50 (nM) (p53 Y220C [2]) | GI50 (NUGC-3 cells) | Compound GI50 (nM)/Reference compound GI50 (nM) (NUGC-3 cells) | GI50 (NUGC-3 cells; Homo sapiens, NUGC-3, 144 h)
4 | 22 min | < 100 nM | [2H]C([2H])([2H])NC(=O)c1ccc(NCC#Cc2cc3c(NC4CCC(N5CC6(COC6)C5)CC4F)cccn3c2CC(F)(F)F)c(OC([2H])([2H])[2H])c1 (single isomer, unassigned) [Compound 74d] | A (A: EC50 of the compound≤EC50 of the reference compound) | – | A (A: GI50 of the compound ≤ GI50 of the reference compound) | < 1000 nM
5 | 33 min | – | CNC(=O)c1ccc(NCC#Cc2nc3c(NC4CC[C@@H](N5CC6(COC6)C5)C[C@@H]4F)cccn3c2CC(F)(F)F)c(OCF)c1 (stereo partly shown) [Compound 58] | B (B: EC50 of the reference compound<EC50 of the compound≤3.0*EC50 of the reference compound) | – | B (B: GI50 of the reference compound < GI50 of the compound ≤ 3.0 * GI50 of the reference compound) | < 1000 nM
6 | 55 min | < 100 nM | [2H]C([2H])([2H])NC(=O)c1ccc(NCC#Cc2nc3c(NC4CC[C@@H](N5CC6(COC6)C5)C[C@@H]4F)cccn3c2CC(F)(F)F)c(OC([2H])([2H])[2H])c1 (stereo partly shown) [Compound 64] | B (B: EC50 of the reference compound<EC50 of the compound≤3.0*EC50 of the reference compound) | – | B (B: GI50 of the reference compound < GI50 of the compound ≤ 3.0 * GI50 of the reference compound) | < 1000 nM
